Laboratory results: patent publication US20260184706A1, “PHENYLSULFONAMIDE DERIVATIVES, PREPARATION METHOD THEREFOR, AND PHARMACEUTICAL COMPOSITION FOR PREVENTION OR TREATMENT OF CANCER CONTAINING SAME AS ACTIVE INGREDIENT” (Korea Research Institute of Chemical Technology, priority 2022, published 2026)

Experiments:
[1] = molecular target: recombinant human HRI protein (Homo sapiens, UniProt Q9BQI3); test: eIF2-alpha kinase heme-regulated inhibitor (HRI) inhibitory capacity, 33P-ATP filter assay; type: biochemical; conditions: 45 uM [gamma-33P-ATP], 40 minutes, room temperature
Protocol: <Experimental Example 3> Evaluation of eIF2-Alpha Kinase Heme-Regulated Inhibitor (HRI) Inhibitory Capacity
A recombinant human HRI protein was mixed with the compound in a reaction solution (50 mM Tris/HCl pH 7.5, 0.04 mM EDTA, 300 uM RSRSRSRSRSRSRSR, 10 mM Magnesium acetate, 45 uM [gamma-33P-ATP]) and reacted at room temperature for 40 minutes. Then, the reaction was terminated by adding phosphoric acid (0.5%) to the reaction mixture, and […] of the reaction solution was dropped onto a P30 filter. The filter was washed four times in a 0.425% phosphoric acid solution for 4 minutes, then […] washed once more in methanol, dried, and the HRI activity was measured by scintillation counting. […] The compound was diluted by 1/3 from the highest concentration of 1 uM and treated with a total of 9 concentrations to evaluate the degree of inhibition.

[2] = molecular target: recombinant human GCN2 protein (Homo sapiens, UniProt Q9P2K8); test: General control nonderepressible 2 (GCN2) inhibitory capacity, 33P-ATP filter assay; type: biochemical; conditions: recombinant human GCN2, 70 uM [gamma-33P-ATP], 40 minutes, room temperature
[3] = molecular target: recombinant human PKR protein (Homo sapiens, UniProt P19525); test: Protein kinase R (PKR) inhibitory capacity, 33P-ATP filter assay; type: biochemical; conditions: 15 uM [gamma-33P-ATP], 40 minutes, room temperature
Protocol: <Experimental Example 4> Evaluation of Protein Kinase R (PKR) Inhibitory Capacity
A recombinant human PKR protein was mixed with the compound in a reaction solution (8 mM MOPS pH 7.0, 0.2 mM EDTA, 20 uM RSRSRSRSRSRSRSR, 10 mM Magnesium acetate, 15 uM [gamma-33P-ATP]) and reacted at room temperature for 40 minutes. Then, the reaction was terminated by adding phosphoric acid (0.5%) to the reaction mixture, and 10 ul of the reaction solution was dropped onto a P30 filter. The filter was washed four times in a 0.425% phosphoric acid solution for 4 minutes, then washed once more in methanol, dried, and the PKR activity was measured by scintillation counting. […] The compound was diluted by 1/3 from the highest concentration of 1 uM and treated with a total of 9 concentrations to evaluate the degree of inhibition.

phosphorylated GCN2 = molecular target: T1, phosphorylated GCN2 (Homo sapiens, UniProt Q9P2K8); test: Inhibition of phosphorylated GCN2 under amino acid deficiency in HT-1080 cells, Western blot; type: cell-based; conditions: compound 50 nM, 24 hours; for Phospho-GCN2 inhibition: symbols ◯ / X not defined
T1 construct: endogenous in cells; host or cells: HT-1080
Protocol: <Experimental Example 5> Evaluation of Inhibitory Efficacy of ISR-Related Kinase GCN2 Under Amino Acid Deficiency Condition Using Western Blot
HT-1080 cells, a human fibrosarcoma cell line, were cultured in RPMI-1640 medium supplemented with 10% FBS, penicillin (penicillin; 100 IU/ml), and streptomycin (streptomycin; 100 μg/ml). Cells (1×10^6 cells/ml) were seeded onto 100 mm plates (polypropylene tissue culture plate) and incubated for 24 hours in a 37° C., 5% CO2 incubator before being used for experiments.
The following method was used to achieve amino acid deficiency conditions in cells. After 24 hours of cell culture, the cells were cultured in amino acids and L-glutamine-free RPMI-1640 medium supplemented with 10% FBS, penicillin (100 IU/ml), and streptomycin (100 μg/ml). After 24 hours of cell culture in RPMI-1640 without amino acids and L-glutamine, the compound prepared at a concentration of 50 nM was dispensed onto each plate and cultured for 24 hours in a 37° C., 5% CO2 incubator.
In order to measure the signal transduction inhibitory efficacy of GCN among the ISR-related kinases according to the present invention, the following experiment was performed using SDS-PAGE. The fibrosarcoma cell line HT-1080 cells cultured on plates as described above were washed with PBS after removing the culture medium. After removing PBS, the cells were lysed by adding a radio-immunoprecipitation assay buffer (RIPA buffer) containing 50 mM Tris (pH 7.4), 150 mM NaCl, 1% NP-40, 0.5% sodium deoxycholate, 2 mM sodium fluoride, 2 mM EDTA, 0.1% SDS, and a protease/phosphatase inhibitor cocktail to the plate. After centrifugation at 4° C., 13,000×g for 15 minutes, the protein in the upper layer was collected, and the protein concentration was measured at 562 nm using BCA (bicinchoninc acid) reagent, and the amount of protein in all samples was prepared at 20-50 μg.
After making the total volume the same using the sample buffer and RIPA buffer, it was heated at 97° C. for 5 minutes. Then, electrophoresis was performed on 8% or 12% SDS-PAGE at 80 V for 30 minutes and at 160 V for 1 hour and 30 minutes. After electrophoresis, the SDS-PAGE gel was transferred to an NC membrane (nitrocellulose membrane) at 90 V for 2 hours. The NC membrane was placed in TBST (tris buffer saline tween-20; 20 mM tris, 137 mM sodium chloride, 0.1% tween-20, pH 8.0) containing 5% non-fat skim milk, placed on a shaker, and reacted at room temperature for 1 hour.
Each primary antibody was diluted in TBST containing 5% non-fat skim milk, poured onto the NC membrane, and reacted at 4° C. for 24 hours. The membrane was washed three times for 10 minutes each with TBST. The secondary antibodies (anti-rabbit IgG and anti-mouse IgG labeled with horseradish peroxidase (HRP)) were diluted in TBST containing 5% non-fat skim milk and reacted with the membrane at room temperature for 1 hour. Upon completion of the reaction, the membrane was washed three times with TBST for 10 minutes each. Protein expression bands were detected by a chemiluminescence image analyzer (Image Quant LAS 500) after the ECL solution was reacted with the NC membrane.
GCN2, a key kinase of the integrated stress response (ISR), is phosphorylated in response to amino acid deficiency.

Sequence of recombinant human HRI protein (Q9BQI3 whole entry): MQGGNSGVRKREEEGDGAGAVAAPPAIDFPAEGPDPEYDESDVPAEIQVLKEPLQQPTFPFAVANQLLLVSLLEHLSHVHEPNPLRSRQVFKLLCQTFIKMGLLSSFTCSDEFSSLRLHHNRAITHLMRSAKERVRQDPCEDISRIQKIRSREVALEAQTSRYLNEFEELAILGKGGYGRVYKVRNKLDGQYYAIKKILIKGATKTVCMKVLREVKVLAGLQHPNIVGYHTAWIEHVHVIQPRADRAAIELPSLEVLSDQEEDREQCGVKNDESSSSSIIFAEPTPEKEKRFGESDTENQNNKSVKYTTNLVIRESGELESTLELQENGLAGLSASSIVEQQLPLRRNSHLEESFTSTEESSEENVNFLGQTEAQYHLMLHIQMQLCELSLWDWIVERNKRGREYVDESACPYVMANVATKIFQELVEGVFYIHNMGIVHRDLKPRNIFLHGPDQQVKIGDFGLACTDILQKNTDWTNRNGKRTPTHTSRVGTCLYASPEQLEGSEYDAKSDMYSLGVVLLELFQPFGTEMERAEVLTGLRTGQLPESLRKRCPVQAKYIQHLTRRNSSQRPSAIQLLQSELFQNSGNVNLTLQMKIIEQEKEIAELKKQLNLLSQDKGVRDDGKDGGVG
T1 sequence (Q9P2K8 whole entry): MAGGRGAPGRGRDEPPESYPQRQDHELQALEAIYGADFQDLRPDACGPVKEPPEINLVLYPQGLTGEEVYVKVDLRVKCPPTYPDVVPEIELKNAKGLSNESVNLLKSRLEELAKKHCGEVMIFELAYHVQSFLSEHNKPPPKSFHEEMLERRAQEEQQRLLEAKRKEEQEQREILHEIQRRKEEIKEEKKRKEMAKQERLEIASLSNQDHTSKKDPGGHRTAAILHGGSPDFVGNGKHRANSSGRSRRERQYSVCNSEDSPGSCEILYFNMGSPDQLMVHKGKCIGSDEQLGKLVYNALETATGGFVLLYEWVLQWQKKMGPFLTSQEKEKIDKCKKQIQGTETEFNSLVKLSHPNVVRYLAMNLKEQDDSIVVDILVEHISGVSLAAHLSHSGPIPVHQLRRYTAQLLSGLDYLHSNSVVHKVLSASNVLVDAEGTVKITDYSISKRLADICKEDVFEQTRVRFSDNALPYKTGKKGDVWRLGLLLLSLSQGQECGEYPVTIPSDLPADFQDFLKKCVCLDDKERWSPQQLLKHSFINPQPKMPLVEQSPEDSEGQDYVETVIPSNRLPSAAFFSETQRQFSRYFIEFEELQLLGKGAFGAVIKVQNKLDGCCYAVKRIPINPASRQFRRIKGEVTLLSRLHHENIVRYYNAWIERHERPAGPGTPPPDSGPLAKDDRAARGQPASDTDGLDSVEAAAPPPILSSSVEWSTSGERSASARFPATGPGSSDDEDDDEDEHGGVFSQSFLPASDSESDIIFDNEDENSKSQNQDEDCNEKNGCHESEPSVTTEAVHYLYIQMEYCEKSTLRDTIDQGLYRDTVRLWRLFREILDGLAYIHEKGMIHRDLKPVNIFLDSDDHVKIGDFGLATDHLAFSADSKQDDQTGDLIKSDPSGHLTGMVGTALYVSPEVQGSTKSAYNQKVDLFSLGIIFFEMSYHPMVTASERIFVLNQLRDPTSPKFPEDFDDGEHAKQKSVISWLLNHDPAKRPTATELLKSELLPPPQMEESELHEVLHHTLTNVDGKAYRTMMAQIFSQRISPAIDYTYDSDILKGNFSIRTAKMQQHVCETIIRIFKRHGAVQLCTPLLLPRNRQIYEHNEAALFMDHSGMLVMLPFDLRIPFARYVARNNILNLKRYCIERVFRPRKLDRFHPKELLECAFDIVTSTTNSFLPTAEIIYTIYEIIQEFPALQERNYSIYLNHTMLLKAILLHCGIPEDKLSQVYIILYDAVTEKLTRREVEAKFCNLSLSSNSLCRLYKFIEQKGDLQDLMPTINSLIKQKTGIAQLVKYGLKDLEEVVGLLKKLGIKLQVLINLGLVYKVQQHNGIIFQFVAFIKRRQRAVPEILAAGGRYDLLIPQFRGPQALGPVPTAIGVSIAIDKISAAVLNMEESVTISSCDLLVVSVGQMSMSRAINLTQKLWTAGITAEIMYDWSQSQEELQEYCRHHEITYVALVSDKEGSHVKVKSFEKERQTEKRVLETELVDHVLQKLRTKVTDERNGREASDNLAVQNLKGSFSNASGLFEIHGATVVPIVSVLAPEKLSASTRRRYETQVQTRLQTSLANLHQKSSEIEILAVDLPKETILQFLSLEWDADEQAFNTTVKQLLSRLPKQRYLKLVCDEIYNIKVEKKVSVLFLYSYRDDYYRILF
Sequence of recombinant human GCN2 protein (Q9P2K8 whole entry): as above
Sequence of recombinant human PKR protein (P19525 whole entry): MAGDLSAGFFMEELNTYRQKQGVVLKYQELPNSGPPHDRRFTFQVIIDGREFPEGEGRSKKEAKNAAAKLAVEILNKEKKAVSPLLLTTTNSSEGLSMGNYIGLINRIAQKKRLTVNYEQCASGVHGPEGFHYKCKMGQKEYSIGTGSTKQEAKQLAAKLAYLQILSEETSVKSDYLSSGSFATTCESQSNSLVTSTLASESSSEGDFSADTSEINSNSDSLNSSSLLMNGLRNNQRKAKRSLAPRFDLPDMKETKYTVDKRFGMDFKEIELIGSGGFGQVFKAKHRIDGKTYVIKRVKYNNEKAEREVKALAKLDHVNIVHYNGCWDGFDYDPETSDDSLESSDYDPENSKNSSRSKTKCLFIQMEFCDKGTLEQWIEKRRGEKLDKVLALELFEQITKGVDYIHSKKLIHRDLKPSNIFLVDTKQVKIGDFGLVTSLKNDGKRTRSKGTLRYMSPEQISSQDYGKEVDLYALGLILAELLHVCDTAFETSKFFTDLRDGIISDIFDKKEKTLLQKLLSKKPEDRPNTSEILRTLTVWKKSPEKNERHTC

## COc1ncc(Cl)cc1S(=O)(=O)Nc1ccc(F)c(-n2cc(C(F)F)c3nc(N)ncc3c2=O)c1F [Example 22, N-(3-(2-amino-8-(difluoromethyl)-5-oxopirido[4,3-d]pyrimidin-6(5H)-yl)-2,4-difluorophenyl)-5-chloro-2-methoxypyridine-3-sulfonamide]
[1]
  IC50: < 100 nM
[2]
  IC50: < 100 nM
[3]
  IC50: 300 to 1000 nM
Phosphorylated GCN2
  inhibitory effect on the phosphorylated GCN2: excellent inhibitory effects
  Phospho-GCN2 inhibition: ◯

## Nc1ncc2c(=O)n(-c3c(F)ccc(NS(=O)(=O)c4cc(Cl)cnc4Cl)c3F)ccc2n1 [Example 27, N-(3-(2-amino-5-oxopirido[4,3-d]pyrimidin-6(5H)-yl)-2,4-difluorophenyl)-2,5-dichloropyridine-3-sulfonamide]
[1]
  IC50: < 100 nM
[2]
  IC50: < 100 nM
[3]
  IC50: > 1000 nM
Phosphorylated GCN2
  inhibitory effect on the phosphorylated GCN2: excellent inhibitory effect
  Phospho-GCN2 inhibition: ◯

## Nc1ncc2c(=O)n(-c3c(F)ccc(NS(=O)(=O)c4cccc5ccccc45)c3F)ccc2n1 [Example 29, N-(3-(2-amino-5-oxopirido[4,3-d]pyrimidin-6(5H)-yl)-2,4-difluorophenyl)naphthalene-1-sulfonamide]
[1]
  IC50: < 100 nM
[2]
  IC50: < 100 nM
[3]
  IC50: 100 to 300 nM
Phosphorylated GCN2
  inhibitory effect on the phosphorylated GCN2: excellent inhibitory effects
  Phospho-GCN2 inhibition: ◯

## CNc1ncc2c(=O)n(-c3c(F)ccc(NS(=O)(=O)c4cc(Cl)cnc4OC)c3F)ccc2n1 [Example 32, 5-chloro-N-(2,4-difluoro-3-(2-(methylamino)-5-oxopirido[4,3-d]pyrimidin-6(5H)-yl)phenyl)-2-methoxypyridine-3-sulfonamide]
[1]
  IC50: < 100 nM
[2]
  IC50: < 100 nM
[3]
  IC50: > 1000 nM
Phosphorylated GCN2
  inhibitory effect on the phosphorylated GCN2: excellent inhibitory effect
  Phospho-GCN2 inhibition: ◯

## COc1ncc(Cl)cc1S(=O)(=O)Nc1ccc(F)c(-n2c(=O)c3cnc(N)nc3n(C)c2=O)c1F [Example 44, N-(3-(7-amino-1-methyl-2,4-dioxo-1,4-dihydropyrimido[4,5-d]pyrimidin-3(2H)-yl)-2,4-difluorophenyl)-5-chloro-2-methoxypyridine-3-sulfonamide]
[1]
  IC50: < 100 nM
[2]
  IC50: 100 to 300 nM
[3]
  IC50: 300 to 1000 nM
Phosphorylated GCN2
  inhibitory effect on the phosphorylated GCN2: excellent inhibitory effects
  Phospho-GCN2 inhibition: ◯

## COc1ncc(Br)cc1S(=O)(=O)Nc1ccc(F)c(-n2c(=O)c3cnc(N)nc3n(C)c2=O)c1F [Example 46, N-(3-(7-amino-1-methyl-2,4-dioxo-1,4-dihydropyrimido[4,5-d]pyrimidin-3(2H)-yl)-2,4-difluorophenyl)-5-bromo-2-methoxypyridine-3-sulfonamide]
[1]
  IC50: 100 to 300 nM
[2]
  IC50: < 100 nM
[3]
  IC50: 300 to 1000 nM
Phosphorylated GCN2
  inhibitory effect on the phosphorylated GCN2: excellent inhibitory effects
  Phospho-GCN2 inhibition: ◯
